Laboratory results published in patent EP4703354A1, “COMPOUND AS CCR6 ANTAGONIST, AND PHARMACEUTICAL COMPOSITION AND USE THEREOF” (Wuhan Createrna Science and Technology Co.,Ltd., priority 2023, dated 2024).
Like-named read-outs stand apart in the source and are kept apart here.

Key:
[1] = molecular target: T1, human CCR6 (Homo sapiens, UniProt P51684); assay: human CCR6 calcium flux activity (FLIPR, HEK293 cells stably expressing human CCR6, CCL20 stimulation); type: cell-based; conditions: HEK293 cells stably expressing human CCR6, EC80 human MIP-3 alpha/CCL20; read-out: CCR6 inhibitory activity, IC50
T1 construct: expressed in transfected cells; host or cells: HEK293
T1 sequence (P51684 1-374): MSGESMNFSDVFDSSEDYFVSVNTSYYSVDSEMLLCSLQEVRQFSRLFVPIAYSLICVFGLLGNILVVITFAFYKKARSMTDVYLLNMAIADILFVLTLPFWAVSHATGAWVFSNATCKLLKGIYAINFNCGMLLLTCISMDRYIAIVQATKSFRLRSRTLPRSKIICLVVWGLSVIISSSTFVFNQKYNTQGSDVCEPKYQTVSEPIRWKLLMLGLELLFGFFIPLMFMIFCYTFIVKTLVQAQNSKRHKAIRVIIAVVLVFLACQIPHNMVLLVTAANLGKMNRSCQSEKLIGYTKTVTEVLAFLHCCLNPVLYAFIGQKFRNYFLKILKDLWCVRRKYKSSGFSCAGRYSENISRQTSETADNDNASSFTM
Method: The activity of the compounds was evaluated using HEK293 cells stably expressing human CCR6 via the FLIPR platform. A 384-well black cell culture plate (Greiner, 781946) was used, with a seeding density of 20,000 cells/well, and incubated overnight at 37°C in a 5% CO2 incubator. The culture medium in the cell plate wells was removed, and 20 µL of Fluo-4 Direct™ Calcium Assay Buffer (Invitrogen, F10471, Component C), 20 µL of 2× Fluo-4 Direct™ Calcium Assay Reagent (Invitrogen, F10471, Component A) working solution, and 10 µL of 6× test compound working solution were sequentially added to each well. The cell plate was incubated in a 37 °C, 5% CO2 incubator for 50 min, followed by a 10 min incubation at room temperature. Additionally, a 6×EC80 human MIP-3 alpha/CCL20 (MCE, HY-P7262) working solution was prepared. After the incubation was completed, 10 µL/well of the 6×EC80 human MIP-3 alpha/CCL20 working solution was transferred to the cell plate using a FLIPR instrument, and the fluorescence signal changes at an excitation wavelength of 494 nm and an emission wavelength of 516 nm were recorded over 90 seconds. The difference between the maximum fluorescence signal (RFUMax) and the minimum fluorescence signal (RFUMin) was used as the output signal. The compound inhibition rate and the log value of the compound concentration were calculated, and a four-parameter fitting analysis was performed using GraphPad Prism 8 software to obtain the IC50 value of the test compound.

[2] = in vivo pharmacokinetic study in SD rats; conditions: rat; for bioavailability: 1 mg/kg PO vs 1 mg/kg IV, read-out: Oral bioavailability F (%); for AUC(0-t) / Cmax / half-life: 1 mg/kg
Method: 2.2.1 Rats: SD rats, SPF grade, 6 rats per compound, male, body weight range 180-200 g.
2.2.2 Housing conditions: The animals were housed in an SPF-grade animal facility with free access to food and water, three per cage, under a 12/12-hour light/dark cycle (7:00 am/7:00 pm), at a temperature of 23 ± 3°C.
2.2.3 Drug preparation: The compound was precisely weighed, mixed with the required volume of 1% Tween 80, vortexed for 2 min, and then sonicated for 5 min until no visible particles remained. The mixture was subsequently stirred on a magnetic stirrer for 20 min, and the middle layer of the drug solution was collected for administration. For the IV group, the compound was accurately weighed, dissolved in the required volume of 50% PEG400, sonicated for 10 min, and vortexed until clear before administration.
The rats were randomly divided into 2 groups based on body weight, with 3 rats per compound per group. Group 1 was administered a single oral gavage dose (fasted), and Group 2 was administered a single tail vein bolus injection. Blood collection time points: for the po group, blood was collected at 0.167 h, 0.5 h, 1 h, 2 h, 3 h, 4 h, 6 h, and 8 h; for the iv group, blood was collected at 0.033 h, 0.167 h, 0.5 h, 1 h, 2 h, 4 h, 6 h, and 8 h.
After administration to the rats, blood was collected from the orbital venous plexus according to the sampling time points. Approximately 0.2-0.3 mL of blood was collected at each time point into anticoagulant EP tubes (containing 4 µL of EDTA-K2, 375 mg/mL, dried at 50°C). The tubes were slowly inverted up and down three times and stored in an ice box (for no more than 30 minutes). Centrifugation was performed at 4°C at 3000 × g for 10 minutes, and the supernatant was transferred to labeled EP tubes for bioanalytical testing. If testing could not be performed on the same day, the samples were stored at -80°C until analysis (care was taken to avoid multiple freeze/thaw cycles).
The data were analyzed using WinNonlin via a non-compartmental model to obtain PK parameters (Cmax, AUC0-last, AUCinf, T1/2, etc., selected based on different routes of administration). For specific data, please refer to Table 2. Table 2. PK experimental results of compounds in SD rats

IC50 [1] [nM] | Compound | also measured
53.6 | CN(C)C(=O)c1nccc(Nc2c(N[C@@H](C#CC3CCC3)[C@@]3(C)CC(F)(F)CO3)c(=O)c2=O)c1O (single isomer, unassigned) [110B] | –
– | Cc1cccnc1C(Nc1c(Nc2ccnc(C(=O)N(C)C)c2O)c(=O)c1=O)C1(C)CCC(F)(F)C1 (single isomer, unassigned) [125B] | bioavailability ([2]; in vivo): 136%; AUC(0-t) ([2]; in vivo, IV): 1500 ng·h/mL; Cmax ([2]; in vivo, IV): 3050 ng/mL; AUC(0-t) ([2]; in vivo, PO): 2040 ng·h/mL; Cmax ([2]; in vivo, PO): 822 ng/mL; half-life ([2]; in vivo, PO): 1.37 h
– | Cc1cc(F)cnc1[C@H](Nc1c(Nc2ccnc(C(=O)N(C)C)c2O)c(=O)c1=O)[C@@]1(C)CC(F)(F)CO1 [093B, 4-((2-(((S)-((R)-4,4-difluoro-2-methyltetrahydrofuran-2-yl)(5-fluoro-3-methylpyridin-2-yl)methyl)amino)-3,4-dioxocyclobut-1-en-1-yl)amino)-3-hydroxy-N,N-dimethylpicolinamide] | bioavailability ([2]; male, plasma): 51.6%; AUC(0-t) ([2]; male, plasma, IV): 716 ng·h/mL; Cmax ([2]; male, plasma, IV): 1890 ng/mL; AUC(0-t) ([2]; male, plasma, PO): 370 ng·h/mL; Cmax ([2]; male, plasma, PO): 285 ng/mL; half-life ([2]; male, plasma, PO): 3.83 h
2.4 | CN(C)C(=O)c1nccc(Nc2c(N[C@@H](c3ncccc3F)C3(C)CCCC3)c(=O)c2=O)c1O [compound 001, (R)-4-((2-(((3-fluoropyridin-2-yl)(1-methylcyclopentyl)methyl)amino)-3,4-dioxocyclobut-1-en-1-yl)amino)-3-hydroxy-N,N-dimethylpicolinamide] | –
74 | CN(C)C(=O)c1nccc(Nc2c(N[C@@H](c3cnccn3)C3(C)CCCC3)c(=O)c2=O)c1O [compound 006, (R)-3-hydroxy-N,N-dimethyl-4-((2-(((1-methylcyclopentyl)(pyrazin-2-yl)methyl)amino)-3,4-dioxocyclobut-1-en-1-yl)amino)picolinamide] | –
151 | CN(C)C(=O)c1nccc(Nc2c(N[C@@H](c3cccc(C(F)(F)F)n3)C3(C)CCCC3)c(=O)c2=O)c1O [compound 008, (R)-3-hydroxy-N,N-dimethyl-4-((2-(((1-methylcyclopentyl)(6-(trifluoromethyl)pyridin-2-yl)methyl)amino)-3,4-dioxocyclobut-1-en-1-yl)amino)picolinamide] | –
22.5 | CN(C)C(=O)c1nccc(Nc2c(N[C@@H](c3ncc(F)cc3Cl)C3(C)CCCC3)c(=O)c2=O)c1O [compound 011, (R)-4-((2-(((3-chloro-5-fluoropyridin-2-yl)(1-methylcyclopentyl)methyl)amino)-3,4-dioxocyclobut-1-en-1-yl)amino)-3-hydroxy-N,N-dimethylpicolinamide] | –
9 | CN(C)C(=O)c1nccc(Nc2c(N[C@@H](c3cc(Cl)ccn3)C3(C)CCCC3)c(=O)c2=O)c1O [compound 012, (R)-4-((2-(((4-chloropyridin-2-yl)(1-methylcyclopentyl)methyl)amino)-3,4-dioxocyclobut-1-en-1-yl)amino)-3-hydroxy-N,N-dimethylpicolinamide] | –
161 | CN(C)C(=O)c1nccc(Nc2c(N[C@@H](c3ncccc3C(F)F)C3(C)CCCC3)c(=O)c2=O)c1O [compound 015, (R)-4-((2-(((3-(difluoromethyl)pyridin-2-yl)(1-methylcyclopentyl)methyl)amino)-3,4-dioxocyclobut-1-en-1-yl)amino)-3-hydroxy-N,N-dimethylpicolinamide] | –
6.4 | CN(C)C(=O)c1nccc(Nc2c(N[C@@H](c3nccc(F)c3F)C3(C)CCCC3)c(=O)c2=O)c1O [compound 021, (R)-4-((2-(((3,4-difluoropyridin-2-yl)(1-methylcyclopentyl)methyl)amino)-3,4-dioxocyclobut-1-en-1-yl)amino)-3-hydroxy-N,N-dimethylpicolinamide] | –
47.4 | CN(C)C(=O)c1nccc(Nc2c(N[C@@H](c3ccc(F)c(F)n3)C3(C)CCCC3)c(=O)c2=O)c1O [compound 024, (R)-4-((2-(((5,6-difluoropyridin-2-yl)(1-methylcyclopentyl)methyl)amino)-3,4-dioxocyclobut-1-en-1-yl)amino)-3-hydroxy-N,N-dimethylpicolinamide] | –
0.7 | CC(C)N(C)C(=O)c1nccc(Nc2c(N[C@@H](c3ncccc3F)C3(C)CCCC3)c(=O)c2=O)c1O [compound 026, (R)-4-((2-(((3-fluoropyridin-2-yl)(1-methylcyclopentyl)methyl)amino)-3,4-dioxocyclobut-1-en-1-yl)amino)-3-hydroxy-N-isopropyl-N-methylpicolinamide] | –
1370 | CN(C)C(=O)c1nccc(Nc2c(NC(c3nn(C)c4c3COC4)C3(C)CCCC3)c(=O)c2=O)c1O (centres unmarked) [compound 027, 3-hydroxy-N,N-dimethyl-4-((2-(((1-methyl-4,6-dihydro-1H-furo[3,4-c]pyrazol-3-yl)(1-methylcyclopentyl)methyl)amino)-3,4-dioxocyclobut-1-en-1-yl)amino)picolinamide] | –
161 | Cc1c(C(Nc2c(Nc3ccnc(C(=O)N(C)C)c3O)c(=O)c2=O)C2(C)CCCC2)nn2c1CCC2 (centres unmarked) [compound 029, 3-hydroxy-N,N-dimethyl-4-((2-(((3-methyl-5,6-dihydro-4H-pyrrolo[1,2-b]pyrazol-2-yl)(1-methylcyclopentyl)methyl)amino)-3,4-dioxocyclobut-1-en-1-yl)amino)picolinamide] | –
887 | CN(C)C(=O)c1nccc(Nc2c(NC(C(=O)C3CC3)C3(C)CCCC3)c(=O)c2=O)c1O (centres unmarked) [compound 034, 4-((2-((2-cyclopropyl-1-(1-methylcyclopentyl)-2-oxoethyl)amino)-3,4-dioxocyclobut-1-en-1-yl)amino)-3-hydroxy-N,N-dimethylpicolinamide] | –
820 | CN(C)C(=O)c1nccc(Nc2c(NC(C(=O)C3CCC3)C3(C)CCCC3)c(=O)c2=O)c1O (centres unmarked) [compound 035, 4-((2-((2-cyclobutyl-1-(1-methylcyclopentyl)-2-oxoethyl)amino)-3,4-dioxocyclobut-1-en-1-yl)amino)-3-hydroxy-N,N-dimethylpicolinamide] | –
95.8 | CN(C)C(=O)c1nccc(Nc2c(N[C@@H](c3ccccc3)C3(C)CCCC3)c(=O)c2=O)c1O [compound 037, (R)-3-hydroxy-N,N-dimethyl-4-((2-(((1-methylcyclopentyl)(phenyl)methyl)amino)-3,4-dioxocyclobut-1-en-1-yl)amino)picolinamide] | –
113 | CC(C)[C@H](Nc1c(Nc2ccnc(C(=O)N(C)C)c2O)c(=O)c1=O)C1(C)CCCC1 [compound 038, (S)-3-hydroxy-N,N-dimethyl-4-((2-((2-methyl-1-(1-methylcyclopentyl)propyl)amino)-3,4-dioxocyclobut-1-en-1-yl)amino)picolinamide] | –
60.8 | Cc1c(Cl)ccnc1[C@H](Nc1c(Nc2ccnc(C(=O)N(C)C)c2O)c(=O)c1=O)C1(C)CCCC1 [compound 048, (R)-4-((2-(((4-chloro-3-methylpyridin-2-yl)(1-methylcyclopentyl)methyl)amino)-3,4-dioxocyclobut-1-en-1-yl)amino)-3-hydroxy-N,N-dimethylpicolinamide] | –
